Measurements published in US20100048482A1, “COMPOSITIONS AND METHODS FOR MODULATING EPSILON PROTEIN KINASE C-MEDIATED CYTOPROTECTION” (Board of Trustees of the Leland Stanford Junior University, priority 2008, published 2010).
“Also recorded” adds a separate entry of the source. Ends that are not written are not given here.

Key:
[1] = tested on: Langendorff perfused rat heart; assay: Ex vivo Langendorff perfused rat heart ischemia-reperfusion, creatine phosphokinase (CPK) release; settings: for effect on IR-induced CPK release / IR injury: ex vivo IR
Experimental: In accordance with a well-established ex vivo rat heart model for ischemia-reperfusion (see, e.g., U.S. Publication Nos. 20080167247, 20080153926, 20070299012, and 20060293237, which are herein incorporated by reference) and the method described in Example 1, hearts were removed from animals (rats) and subjected to a normoxia or an IR protocol, both depicted in FIG. 1A. The normoxia regimen comprised exposing hearts to 70 minutes of a normal oxygen state. The IR (ischemia/reperfusion) regimens comprised subjecting hearts to 20 minutes of normoxia, followed by 35 minutes of ischemia, followed by 15 minutes of reperfusion. […] The amount of necrotic cell death was then determined by measuring the release of creatine phosphokinase (CPK) into the buffer perfusate during reperfusion, which served as an indicator of ischemic damage.
(§1) Rat hearts (Wistar, 250-300 g) were excised and cannulated on a Langendorff apparatus via the aorta. Briefly, retrograde perfusion was carried out with a constant coronary flow rate of 10 ml/min with oxygenated Krebs-Henseleit buffer containing 120 mM NaCl, 5,8 mM KCl, 25 mM NaHCO3, […], 1.2 mM MgSO4, 1.2 mM CaCl2, and 10 mM dextrose, pH 7.4 at 37° C. After a 20 min equilibration period, hearts were subjected to a 35 min of no-flow, global ischemia followed by 15 min of reperfusion. Control hearts were perfused with normoxic Krebs buffer and were time-matched for the experimental period. […] At the end of the 15 mins reperfusion period, hearts were rapidly transferred to ice-cold homogenization buffer and subcellular fractions separated by differential centrifugation as described below.
Necrotic damage was determined by measurement of the release of the cardiac myocyte cytosolic enzyme, creatine phosphokinase (CPK), into the effluent (FIG. 1B). The levels are expressed in arbitrary CPK units.
Isolated rat hearts were perfused with oxygenated Krebs-Henseleit solution comprised of NaCl ([…]); KCl ([…]); NaHCO3 ([…]); NaH2O4 ([…]); MgSO4 (1.2 nmol/L); CaCl2 (1.0 nmol/L); and dextrose (10 nmol/L), pH 7.4 at 37 C. After a 10 minute equilibration period, the hearts were treated with the ψεHSP90 peptide or control buffer solution. As depicted in FIG. 5A, Perfusion was maintained at a constant flow of 10 mL/min with Krebs-Henseleit solution containing 1 μM of the appropriate peptide. The Langendorff method employs retrograde flow […] and into the coronary arteries, bypassing the pulmonary arteries. To induce global ischemia, flow was interrupted for 35 minutes. After the ischemic event, the hearts were reperfused with Krebs-Henseleit solution for 15 minutes.
During reperfusion, ischemia-induced cell damage was determined by measuring the activity of creatine phosphokinase (CPK) in the coronary perfusate, carried out using a standard assay kit (Equal Diagnostics, CT, USA). The ψεHSP90 peptide was perfused in Langendorf mode for 10 minutes before and 10 minutes after the ischemic period (1 micromolar) and myocardial injury was assayed by the release of CPK into the effluent during reperfusion (FIG. 5B). Similar to the previous results, hearts that were subjected to IR had high levels of CPK in the effluent; however, perfusion with ψεHSP90 peptide decreased CPK release by 47% (n4; p<0.05; FIG. 5B). Translocation of εPKC and the related isoform δPKC to the mitochondria and plasma membrane was determined by western blotting using εPKC and δPKC antibodies (Santa Cruz Biotechnology) (FIG. 5C). […] Physical interaction between PKCε and HSP90 was determined by co-immunoprecipitation of PKCε and HSP90 in the mitochondrial fraction in hearts exposed to normoxia or IR in the absence or presence of 1 μM ψεHSP90 (FIG. 5D).

εPKC = biological target: T1, εPKC (Rattus norvegicus, UniProt P09216); assay: IR-induced mitochondrial translocation of εPKC (western blot of heart mitochondrial fraction)
T1 construct: Rat heart ventricles were removed from the cannula and homogenized; from tissue; host or cells: Wistar rat heart ventricle; mitochondrial, IMM or plasma membrane fractions
T1 sequence (P09216 1-737): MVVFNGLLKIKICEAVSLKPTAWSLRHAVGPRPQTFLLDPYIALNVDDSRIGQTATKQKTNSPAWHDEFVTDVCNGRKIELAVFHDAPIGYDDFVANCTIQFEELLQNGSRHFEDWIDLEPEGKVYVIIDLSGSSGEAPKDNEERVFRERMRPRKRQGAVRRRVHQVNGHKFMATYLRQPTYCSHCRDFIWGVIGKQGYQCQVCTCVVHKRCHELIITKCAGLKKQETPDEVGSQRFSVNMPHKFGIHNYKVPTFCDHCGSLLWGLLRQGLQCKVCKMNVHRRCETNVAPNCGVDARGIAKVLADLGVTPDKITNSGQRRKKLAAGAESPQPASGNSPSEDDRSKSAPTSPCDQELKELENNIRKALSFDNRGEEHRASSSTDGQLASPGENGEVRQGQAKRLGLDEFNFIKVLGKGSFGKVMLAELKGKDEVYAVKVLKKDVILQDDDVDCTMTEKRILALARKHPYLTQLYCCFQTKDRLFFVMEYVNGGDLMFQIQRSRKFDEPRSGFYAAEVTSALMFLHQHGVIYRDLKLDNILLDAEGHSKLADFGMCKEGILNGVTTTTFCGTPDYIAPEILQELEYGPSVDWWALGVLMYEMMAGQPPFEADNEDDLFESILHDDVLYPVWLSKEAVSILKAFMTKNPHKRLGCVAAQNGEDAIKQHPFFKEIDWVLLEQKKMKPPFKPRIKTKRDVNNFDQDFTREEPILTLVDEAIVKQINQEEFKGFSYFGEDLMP
Experimental: as §1
Rat heart ventricles were removed from the cannula and homogenized in ice-cold mannitol-sucrose buffer (210 mM mannitol, 70 mM sucrose, 5 mM MOPS and 1 mM EDTA containing Sigma Protease Inhibitor 1 and Sigma Phosphatase Inhibitors 1 and 2, added per manufacturer's instructions) The resultant homogenate was filtered through gauze and centrifuged at 700 g for 5 minutes to pellet nuclei and cellular debris. […] Mitochondrial purity was also assessed by electron microscopic analysis. Protein concentration was determined by Bradford assay and 10 μg protein separated on a 12% SDS-PAGE gel and transferred to nitrocellulose. PKC translocation was measured using antibodies raised against εPKC and δPKC with mitochondrial (ANT) and cytosolic (GAPDH) markers used to ensure equal sample loading of the mitochondrial and cytosolic fractions, respectively. […]
During reperfusion, ischemia-induced cell damage was determined by measuring the activity of creatine phosphokinase (CPK) in the coronary perfusate, carried out using a standard assay kit (Equal Diagnostics, CT, USA). […] Translocation of εPKC and the related isoform δPKC to the mitochondria and plasma membrane was determined by western blotting using εPKC and δPKC antibodies (Santa Cruz Biotechnology) (FIG. 5C). […]

εPKC and HSP90 = biological target: T2, εPKC and HSP90 (Rattus norvegicus, UniProt P09216); assay: Co-immunoprecipitation of εPKC and HSP90 in heart mitochondrial fraction after IR
T2 construct: 200-500 μg of mitochondrial or cytosolic protein was diluted into 1 ml of IP Lysis Buffer; from tissue; host or cells: Wistar rat heart; mitochondrial (and cytosolic) fraction
T2 sequence (P09216 1-737): T1 sequence (P09216 1-737)
Experimental: Since εPKC and HSP90 are predominately cytosolic proteins, it was expected to observe co-immunoprecipitation of εPKC and HSP90 in the cytosolic fraction following exposure to IR.
200-500 μg of mitochondrial or cytosolic protein was diluted into 1 ml of IP Lysis Buffer (150 mM NaCl, 10 mM Tris-HCl, 5 mM EDTA, 0.1% Triton X-100, pH=7.4, containing Sigma Protease Inhibitor 1 and Sigma Phosphatase Inhibitors 1 and 2). Proteins were incubated with εPKC antibody (2 μg) for 2 hours at 4° C. with inversion mixing. 10 μg of Protein A/G Beads (Santa Cruz Biotechnology) were added and the mixture was incubated overnight at 4° C. with inversion mixing. Beads were then centrifuged, washed 3× in IP Lysis Buffer, then re-suspended in sample buffer. Immunoprecipitated proteins were separated on 10% SDS-PAGE gels. The presence of associated proteins was determined by western blotting using antibodies specific for PKCε HSP90, TOM20 and TIM23. Protein immunoprecipitation was then repeated in reverse (immunoprecipitation with HSP90, TOM20 or TIM23 antibodies followed by western blotting with εPKC antibody). […]

recombinant human εPKC = biological target: T3, recombinant human εPKC (Homo sapiens, UniProt Q02156); assay: In vitro mitochondrial translocation assay, recombinant GST-εPKC with isolated rat cardiac mitochondria; format: biochemical; settings: for mitochondrial translocation of εPKC in the absence of phospholipids (PS/DAG): 1 μM ψεHSP90, hydrogen peroxide present, no PS/DAG, FIG. 6B lane 5
T3 construct: purchased Cell Signaling Technology
T3 sequence (Q02156 1-737): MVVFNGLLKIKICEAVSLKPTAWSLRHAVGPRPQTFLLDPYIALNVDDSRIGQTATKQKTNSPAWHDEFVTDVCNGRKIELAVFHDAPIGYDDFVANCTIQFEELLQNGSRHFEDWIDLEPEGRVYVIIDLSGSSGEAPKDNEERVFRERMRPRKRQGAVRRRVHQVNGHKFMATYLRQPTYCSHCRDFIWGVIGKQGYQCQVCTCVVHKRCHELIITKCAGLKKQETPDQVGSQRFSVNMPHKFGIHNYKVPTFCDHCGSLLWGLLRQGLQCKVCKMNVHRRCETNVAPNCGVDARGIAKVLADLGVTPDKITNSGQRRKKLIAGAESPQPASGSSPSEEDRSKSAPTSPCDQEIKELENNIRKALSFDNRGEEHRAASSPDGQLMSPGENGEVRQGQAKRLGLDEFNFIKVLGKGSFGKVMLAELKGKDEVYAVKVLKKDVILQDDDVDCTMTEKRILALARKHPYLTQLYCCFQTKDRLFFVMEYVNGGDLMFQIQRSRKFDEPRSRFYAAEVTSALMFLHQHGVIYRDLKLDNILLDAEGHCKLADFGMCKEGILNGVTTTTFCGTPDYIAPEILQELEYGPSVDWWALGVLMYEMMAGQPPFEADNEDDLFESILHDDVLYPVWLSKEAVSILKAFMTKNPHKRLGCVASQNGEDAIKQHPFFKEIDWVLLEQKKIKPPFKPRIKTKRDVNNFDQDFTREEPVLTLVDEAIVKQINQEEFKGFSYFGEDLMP
Experimental: An in vitro approach was used to identify cellular components that were important for εPKC translocation to the mitochondria. As described in Example 5, mitochondria were isolated from normoxic hearts and incubated for 20 minutes at 37° C. with purified recombinant GST-tagged εPKC (Cell Signaling Technology Inc,), which was pretreated by different combinations of PKC activation components including phospholipids and hydrogen peroxide (H2O2) in the absence (FIG. 6A) and presence (FIG. 6B) of the ψεHSP90 peptide. Following incubation of PKCε with its activation components, mitochondria were introduced into the εPKC mixture and incubated for an additional 20 minutes, after which the mitochondria were pelleted by centrifugation and then probed with antibodies selective for PKCε and the mitochondrial marker VDAC The use of GST-tagged εPKC allowed the distinction, based on size, between exogenous GST-εPKC and native/endogenous εPKC present in the mitochondria prior to treatment. Rabbit reticulocyte lysate (RRL) was used as an exogenous source of HSP90 as described previously (Scherrer et al., Biochemistry. 1992. 31:7325-7329)
Activation of recombinant εPKC was performed as described in the art. Briefly, recombinant εPKC (5 μl of 10 ng/μl stock) (Cell Signaling Technology) was aliquoted into assay buffer (20 mM Tris HCl, 50 mM KCl, 1 mM DTT, 0.1 mg/ml BSA Mg^2+ (5 mM), ATP (100 μM), pH 7.4) containing different combinations of activation factors including phosphatidylserine/diacylglycerol (1 mM), H2O2 (50 μM) or ψεHSP90 (1 μm) in a final volume of 50 μl . εPKC was activated by incubation in assay buffer at 37° C. for 20 min. Rabbit reticulocyte lysate (RRL) (10 μl) was added to the incubation mixture for 10 minutes after εPKC activation. […] Mitochondria were then spun at 10,000 g×10 min, resuspended in 50 μl sample loading buffer and mitochondrial εPKC levels measured by western blotting using VDAC as a loading control. […]

δPKC = assay: IR-induced mitochondrial translocation of δPKC (western blot of heart mitochondrial fraction); design: species or system rat; settings: 1 μM ψεHSP90
PKCε = biological target: T4, PKCε (Rattus norvegicus, UniProt P09216); assay: PKCε translocation to plasma membrane fraction after IR (western blot); settings: 1 μM ψεHSP90
T4 construct: Rat heart ventricles were removed from the cannula and homogenized; from tissue; host or cells: Wistar rat heart ventricle; mitochondrial, IMM or plasma membrane fractions
T4 sequence (P09216 1-737): T1 sequence (P09216 1-737)
Experimental: Rat heart ventricles were removed from the cannula and homogenized in ice-cold mannitol-sucrose buffer (210 mM mannitol, 70 mM sucrose, 5 mM MOPS and 1 mM EDTA containing Sigma Protease Inhibitor 1 and Sigma Phosphatase Inhibitors 1 and 2, added per manufacturer's instructions) The resultant homogenate was filtered through gauze and centrifuged at 700 g for 5 minutes to pellet nuclei and cellular debris. The supernatant was centrifuged at 10,000 g to pellet the mitochondrial-enriched fraction and the supernatant from this fraction centrifuged at 100,000 g to pellet the plasma membrane fraction. […] Mitochondrial purity was also assessed by electron microscopic analysis. Protein concentration was determined by Bradford assay and 10 μg protein separated on a 12% SDS-PAGE gel and transferred to nitrocellulose. PKC translocation was measured using antibodies raised against εPKC and δPKC with mitochondrial (ANT) and cytosolic (GAPDH) markers used to ensure equal sample loading of the mitochondrial and cytosolic fractions, respectively. Densitometry was performed using Image J software (NIH).
During reperfusion, ischemia-induced cell damage was determined by measuring the activity of creatine phosphokinase (CPK) in the coronary perfusate, carried out using a standard assay kit (Equal Diagnostics, CT, USA). […]

Compound | increase in CPK release ([1]; IR (35 min ischemia, 15 min reperfusion) with 5 μM GA during reperfusion, versus IR alone, n=7, p<0.05) [%] | effect on CPK release in the absence of IR injury ([1]; normoxic hearts, 5 μm or 10 μm GA) | block of IR-induced translocation of εPKC to the mitochondrial fraction (εPKC; GA 5 μm during reperfusion, n=5, p<0.05) [%] | effect on IR-induced CPK release / IR injury ([1]; 1 μM TAT-conjugated peptide) | effect on IR-induced CPK release / IR injury ([1]; 1 μM TAT-conjugated peptide, listed as corresponding sequence from the HSP90 protein) | reduction of IR-induced CPK release ([1]; 1 μM TAT-conjugated peptide, 10 min before ischemia and first 10 min of reperfusion, versus IR alone, p<0.05) [%] | effect on IR-induced physical association of PKCε and HSP90 at the mitochondria (εPKC and HSP90; 1 μM ψεHSP90) | increase in IR-induced physical interaction between HSP90 and PKCε (co-immunoprecipitation) (εPKC and HSP90; 1 μM ψεHSP90, mitochondrial fraction) [fold] | mitochondrial translocation of εPKC in the absence of phospholipids (PS/DAG) (recombinant human εPKC) | mitochondrial translocation of εPKC in the absence of phospholipids (PS/DAG) (recombinant human εPKC; listed as ψεHSP90) | effect on association/translocation of εPKC with isolated mitochondria in vitro (recombinant human εPKC; 1 μM ψεHSP90, FIG. 6B lanes 2-5) | effect on PKCδ association with the mitochondria after IR (δPKC) | effect on mitochondrial translocation of PKCε after IR (εPKC; 1 μM ψεHSP90) | higher mitochondrial PKCε levels versus IR group untreated with peptide (εPKC; IR in the presence of 1 μm ψεHSP90 peptide) [%] | effect on PKCε translocation to the plasma membrane (PKCε)
COC1=C2C[C@@H](C)C[C@H](OC)[C@H](O)[C@@H](C)/C=C(\C)[C@H](OC(N)=O)[C@@H](OC)/C=C\C=C(/C)C(=O)NC(=CC1=O)C2=O [GA, geldanamycin] | 176 | no effect | 54 |  |  |  |  |  |  |  |  |  |  |  | 
PEDEEEK (not fully specified) |  |  |  | no statistical effect | no effect |  |  |  |  |  |  |  |  |  | 
PKDNEER (not fully specified) [ψεHSP90 peptide] |  |  |  | significantly reduced |  | 47 | increased | ~4 | resulted in translocation of εPKC | sufficient to induce | increased | not altered; also recorded: without effect | enhanced | ~20 | did not affect
